Test results from patent US9458219B2, “Human insulin analogue and acylated derivative thereof” (Shanghai Hengrui Pharmaceutical Co., Ltd., priority 2011, dated 2016).

What was measured:
[1] = tested on: rat models sufferring from diabetes (STZ); assay: In vivo long-acting activity assay of insulin derivatives; set-up: species or system Sprague-Dawley (SD) rats; details: s.c., Humulin R 0.04, Detemir 0.2, others 0.1 mg/kg
Protocol: The rats were fed in an environment of SPF level. […] 100 mg/kg STZ was intraperitoneally injected to establish rat models sufferring from diabetes. Two days later, fasting blood glucose values were measured. […] At the beginning of the experiment, rats were weigh, and the blood glucose levels were measured (cut off tails and the blood glucose levels were detected by using Roche Glucometer and the corresponding test strips, similarly hereafter). On the basis of blood glucose values, rats were randomly divided into groups, 43 rats per group. The drug to be used was prepared in required concentrations. After subcutaneous injection of drugs, blood glucose levels were measured at multiple time points. IP (Index of Prolongation) was calculated according to blood glucose level.

[2] = tested on: rat models sufferring from diabetes (STZ); assay: In vivo long-acting activity assay of PEGylated insulin; set-up: species or system Sprague-Dawley (SD) rats; details: for Blood glucose value (%): Humulin R 0.04, Detemir 0.2, PEG insulins 0.1 mg/kg; for AOC % / IP (Index of Prolongation): s.c.
Protocol: Sprague-Dawley (SD) rats, male, used in this experiment were purchased from SINO-BRITSH SIPPR/BK LAB. ANIMAL LTD., CO, License number: SCXK (Shanghai) 2008-0016, 18-20 g. The rats were fed in an environment of SPF level. ICR male mice were fed three days in a laboratory environment, at temperature of 20-25° C., and humidity of 40-60%. The mice were fasted for 8 hrs before the experiment. 100 mg/kg STZ was intraperitoneally injected to establish rat models sufferring from diabetes. Two days later, fasting blood glucose values were measured. […] At the beginning of the experiment, rats were weigh, and the blood glucose levels were measured (cut off tails and the blood glucose levels were detected by using Roche Glucometer and the corresponding test strips, similarly hereafter). On the basis of blood glucose values, rats were randomly divided into groups, 43 rats per group. The drug to be used was prepared in required concentrations. After subcutaneous injection of drugs, blood glucose levels were measured at multiple time points. IP (Index of Prolongation) was calculated according to blood glucose level.

[3] = Table 5, Humulin R 0.04, Detemir 0.2, PEG (20 kD) insulins 0.1 mg/kg
[4] = Table 6, Humulin R 0.04, Detemir 0.2, PEG (30/40 kD) insulins 0.1 mg/kg

Substance: Detemir
- Blood glucose level (%) ([1]; 0 h): 100.00%
- Blood glucose level (%) ([1]; 0.5 h): 72.21%
- Blood glucose level (%) ([1]; 1 h): 35.57%
- Blood glucose level (%) ([1]; 2 h): 14.45%
- Blood glucose level (%) ([1]; 4 h): 16.32%
- Blood glucose level (%) ([1]; 6 h): 23.80%
- Blood glucose level (%) ([1]; 8 h): 34.77%
- Blood glucose level (%) ([1]; 10 h): 51.42%
- Blood glucose level (%) ([1]; 12 h): 39.68%
- Blood glucose level (%) ([1]; 14 h): 58.06%
- Blood glucose level (%) ([1]; 16 h): 74.84%
- Blood glucose level (%) ([1]; 18 h): 91.67%
- Blood glucose level (%) ([1]; 20 h): 99.05%
- AOC [1]: 69.2
- IP (Index of Prolongation) [1]: 100
- Blood glucose value (%) ([2]; Table 5, 0 h): 100%
- Blood glucose value (%) ([2]; Table 5, 1 h): 96.63%
- Blood glucose value (%) ([2]; Table 5, 2 h): 57.24%
- Blood glucose value (%) ([2]; Table 5, 4 h): 32.49%
- Blood glucose value (%) ([2]; Table 5, 6 h): 40.98%
- Blood glucose value (%) ([2]; Table 5, 8 h): 86.94%
- Blood glucose value (%) ([2]; Table 5, 10 h): 112.66%
- Blood glucose value (%) ([2]; Table 5, 12 h): 127.52%
- AOC % [2, 3]: 7.39%
- IP (Index of Prolongation) [2, 3]: 100
- AOC % [2, 4]: 5.92%
- IP (Index of Prolongation) [2, 4]: 100
- Blood glucose value (%) ([2]; Table 6, time 0): 100.00%
- Blood glucose value (%) ([2]; Table 6, time 1): 104.15%
- Blood glucose value (%) ([2]; Table 6, time 2): 74.83%
- Blood glucose value (%) ([2]; Table 6, time 3): 46.46%
- Blood glucose value (%) ([2]; Table 6, time 4): 23.36%
- Blood glucose value (%) ([2]; Table 6, time 6): 17.11%
- Blood glucose value (%) ([2]; Table 6, time 8): 32.52%
- Blood glucose value (%) ([2]; Table 6, time 10): 94.89%
- Blood glucose value (%) ([2]; Table 6, time 12): 110.45%
